pIC50: −log10 of the molar value.

This is an account of results in US20220220152A1, “BIVALENT ANTAGONISTS OF INHIBITORS OF APOPTOSIS PROTEINS” (Hepagene Therapeutics (HK) Limited, priority 2019, published 2022).

For assay [1], the target named is T1, cIAP2-BIR3 (Homo sapiens, UniProt Q13489).
T1 construct: cIAP2-BIR3; purchased Reaction Biology APT-11-372
In words: cIAP2-BIR3 fluorescence polarization binding assay. The note with it: FP, probe AbuRPFK-5FAM (SM5F) 5 nM, cIAP2-BIR3 80 nM, 60 min at 25° C. The essentials:
(§1)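 Fluorescence polarization competition using 5-carboxyfluorescein-labelled peptide probe AbuRPFK-5FAM; protein and compound preincubated 15 min, probe added, then 60 min at 25° C.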
In general terms: Polarisation of emitted light reports the rotation of a fluorescent probe.

Assay [2] deals with T2, XIAP-BIR3 (Homo sapiens, UniProt P98170).
T2 construct: XIAP-BIR3; purchased Reaction Biology APT-11-374
T2 sequence (P98170 241-356 limits assumed): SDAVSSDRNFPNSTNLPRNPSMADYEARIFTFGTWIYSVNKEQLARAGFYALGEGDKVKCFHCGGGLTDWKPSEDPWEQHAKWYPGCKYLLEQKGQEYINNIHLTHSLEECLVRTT
Briefly: XIAP-BIR3 fluorescence polarization binding assay. The note with it: FP, probe AbuRPFK-5FAM (SM5F) 5 nM, XIAP-BIR3 40 nM, 60 min at 25° C. The method in brief: as §1

Assay [3] concerns the target T3, cIAP1-BIR3 (Homo sapiens, UniProt Q13490).
T3 construct: cIAP1-BIR3; purchased Reaction Biology APT-11-370
Briefly: cIAP1-BIR3 fluorescence polarization binding assay. The conditions noted are these: FP, probe AbuRPFK-5FAM (SM5F) 5 nM, cIAP1-BIR3 15 nM, 60 min at 25° C. The essentials: as §1

T3 sequence (Q13490 253-363 limits assumed): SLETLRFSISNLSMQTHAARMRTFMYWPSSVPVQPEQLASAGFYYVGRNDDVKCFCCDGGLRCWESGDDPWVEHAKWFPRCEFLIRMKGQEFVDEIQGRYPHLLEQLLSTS
T1 sequence (Q13489 238-349 limits assumed): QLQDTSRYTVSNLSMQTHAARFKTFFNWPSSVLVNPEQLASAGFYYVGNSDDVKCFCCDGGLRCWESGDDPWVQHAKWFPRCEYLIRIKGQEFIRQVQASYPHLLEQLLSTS

By pIC50 is commonly meant −log10 of the IC50, conventionally taken in molar units. A high value points to a low IC50. For the molecule `CN[C@@H](C)C(=O)N[C@H](C(=O)N1CCC[C@H]1C(=O)N[C@@H]1CCCc2c(Oc3cccc4c3CCC[C@H]4NC(=O)[C@@H]3CCCN3C(=O)[C@@H](NC(=O)[C@H](C)NC)C3CCCCC3)cccc21)C1CCCCC1` [Compound X, (2S)-1-[(2S)-2-cyclohexyl-2-[(2S)-2-(methylamino)propanamido]acetyl]-N-[(1R)-5-[[(5R)-5-[(2S)-1-[(2S)-2-cyclohexyl-2-[(2S)-2-(methylamino)propanamido]acetyl]pyrrolidine-2-amido]-5,6,7,8-tetrahydronaphthalen-1-yl]oxy]-1,2,3,4-tetrahydronaphthalen-1-yl]pyrrolidine-2-carboxamide], the negative logarithm of the IC50 (pIC50) in assay [1] is 7.00 to 8.00; in assay [2], 7.00 to 8.00; in assay [3], 8.00 to 9.00.
`CC[C@H](NC(=O)[C@H](C)NC)C(=O)N1CCC[C@H]1C(=O)N[C@@H]1CCCc2c(Oc3cccc4c3CCC[C@H]4NC(=O)[C@@H]3CCCN3C(=O)[C@H](CC)NC(=O)[C@H](C)NC)cccc21` [Compound X-A]: the pIC50 in assay [1] was 7.00 to 8.00; in assay [2], 7.00 to 8.00; in assay [3], 8.00 to 9.00.
As to `CN[C@@H](C)C(=O)N[C@H](C(=O)N1CCC[C@H]1C(=O)N[C@@H]1CCCc2c(Oc3cccc4c3CCC[C@H]4NC(=O)[C@@H]3CCCN3C(=O)[C@@H](NC(=O)[C@H](C)NC)C(C)C)cccc21)C(C)C` [Compound X-B, (S)-1-(Methyl-L-alanyl-L-valyl)-N—((R)-5-(((R)-5-((S)-1-(methyl-L-alanyl-L-valyl)pyrrolidine-2-carboxamido)-5,6,7,8-tetrahydronaphthalen-1-yl)oxy)-1,2,3,4-tetrahydronaphthalen-1-yl)pyrrolidine-2-carboxamide], the pIC50 was 7.00 to 8.00 in assay [1], 7.00 to 8.00 in assay [2] and 8.00 to 9.00 in assay [3].
As to `CN[C@@H](C)C(=O)N[C@H](C(=O)N1CCC[C@H]1C(=O)N[C@@H]1CCCc2c(Oc3cccc4c3CCC[C@H]4NC(=O)[C@@H]3CCCN3C(=O)[C@@H](NC(=O)[C@H](C)NC)C3CCOCC3)cccc21)C1CCOCC1` [Compound X-C, (S)-1-((S)-2-((S)-2-(methylamino)propanamido)-2-(tetrahydro-2H-pyran-4-yl)acetyl)-N—((R)-5-(((R)-5-((S)-1-((S)-2-((S)-2-(methylamino)propanamido)-2-(tetrahydro-2H-pyran-4-yl)acetyl)pyrrolidine-2-carboxamido)-5,6,7,8-tetrahydronaphthalen-1-yl)oxy)-1,2,3,4-tetrahydronaphthalen-1-yl)pyrrolidine-2-carboxamide], the pIC50 in assay [1] was 7.00 to 8.00; in assay [2] it was 7.00 to 8.00; in assay [3], 8.00 to 9.00.
In the case of `CN[C@@H](C)C(=O)N[C@H](C(=O)N1CCC[C@H]1C(=O)N[C@@H]1CCCc2c(-c3cccc(-c4cccc5c4CCC[C@H]5NC(=O)[C@@H]4CCCN4C(=O)[C@@H](NC(=O)[C@H](C)NC)C4CCCCC4)c3)cccc21)C1CCCCC1` [III-A, (2S)-1-[(2S)-2-Cyclohexyl-2-[(2S)-2-(methylamino)propanamido]acetyl]-N-[(1R)-5-(3-[(5R)-5-[(2S)-1-[(2S)-2-cyclohexyl-2-[(2S)-2-(methylamino)propanamido]acetyl]pyrolidine-2-amido]-5,6,7,8-tetrahydronaphthalen-1-yl]phenyl)-1,2,3,4-tetrahydronaphthalen-1-yl]pyrrolidine-2-carboxamide], the pIC50 was 7.00 to 8.00 in assay [1], 7.00 to 8.00 in assay [2] and 8.00 to 9.00 in assay [3].
For `CC[C@H](NC(=O)[C@H](C)NC)C(=O)N1CCC[C@H]1C(=O)N[C@@H]1CCCc2c(-c3cccc(-c4cccc5c4CCC[C@H]5NC(=O)[C@@H]4CCCN4C(=O)[C@H](CC)NC(=O)[C@H](C)NC)c3)cccc21` [III-D, (2S)-1-[(2S)-2-[(2S)-2-(methylamino)propanamido]butanoyl]-N-[(1R)-5-[3-[(5R)-5-[(2S)-1-[(2S)-2-[(2S)-2-(methylamino)propanamido]butanoyl]pyrrolidine-2-amido]-5,6,7,8-tetrahydronaphthalen-1-yl]phenyl]-1,2,3,4-tetrahydronaphthalen-1-yl]pyrrolidine-2-carboxamide], the negative logarithm of the IC50 (pIC50) is 7.00 to 8.00 in assay [1], 7.00 to 8.00 in assay [2] and 8.00 to 9.00 in assay [3].
Consider `CC[C@H](NC(=O)[C@H](C)NC)C(=O)N1CCC[C@H]1C(=O)N[C@@H]1CCCc2c(-c3ccc(-c4cccc5c4CCC[C@H]5NC(=O)[C@@H]4CCCN4C(=O)[C@H](CC)NC(=O)[C@H](C)NC)cc3)cccc21` [III-I, (2S)-1-[(2S)-2-[(2S)-2-(methylamino)propanamido]butanoy]l-N-[(1R)-5-[4-[(5R)-5-[(2S)-1-[(2S)-2-[(2S)-2-(methylamino)propanamido]butanoyl]pyrrolidine-2-amido]-5,6,7,8-tetrahydronaphthalen-1-yl]phenyl]-1,2,3,4-tetrahydronaphthalen-1-yl]pyrrolidine-2-carboxamide], for which the pIC50 is 7.00 to 8.00 in assay [1], 7.00 to 8.00 in assay [2] and 8.00 to 9.00 in assay [3].
Consider `CN[C@@H](C)C(=O)N[C@H](C(=O)N1CCC[C@H]1C(=O)N[C@@H]1CCCc2c(-c3ccc(-c4cccc5c4CCC[C@H]5NC(=O)[C@@H]4CCCN4C(=O)[C@@H](NC(=O)[C@H](C)NC)C(C)C)cc3)cccc21)C(C)C` [III-N, (2S)-1-[(2S)-3-methyl-2-[(2S)-2-(methylamino)propanamido]butanoyl]-N-[(1R)-5-[4-[(5R)-5-[(2S)-1-[(2S)-3-methyl-2-[(2S)-2-(methylamino)propanamido]butanoyl]pyrolidine-2-amido]-5,6,7,8-tetrahydronaphthalen-1-yl]phenyl]-1,2,3,4-tetrahydronaphthalen-1-yl]pyrrolidine-2-carboxamide], for which the pIC50 was 7.00 to 8.00 in assay [1], 7.00 to 8.00 in assay [2] and 8.00 to 9.00 in assay [3].
As to `CC[C@H](NC(=O)[C@H](C)NC)C(=O)N1CCC[C@H]1C(=O)N[C@@H]1CCCc2c(-c3cccc4c3CCC[C@H]4NC(=O)[C@@H]3CCCN3C(=O)[C@H](CC)NC(=O)[C@H](C)NC)cccc21` [V-I, (2S)-1-[(2S)-2-[(2S)-2-(methylamino)propanamido]butanoyl]-N-[1(5R,5′R)-5′-[(2S)-1-[(2S)-2-[(2S)-2-(methylamino)propanamido]butanoyl]pyrrolidine-2-amido]-5H,5′H,6H,6′H,7H,7′H,8H,8′H-[1,1′-binaphthalen]-5-yl]pyrrolidine-2-carboxamide; Bis(Formic Acid)], the pIC50 was 8.00 to 9.00 in assay [1], 7.00 to 8.00 in assay [2] and 8.00 to 9.00 in assay [3].
For `CN[C@@H](C)C(=O)N[C@H](C(=O)N1CCC[C@H]1C(=O)N[C@@H]1CCCc2c(NC(=O)c3cccc4c3CCC[C@H]4NC(=O)[C@@H]3CCCN3C(=O)[C@@H](NC(=O)[C@H](C)NC)C(C)C)cccc21)C(C)C` [VII-A, (2S)-1-[(2S)-3-methyl-2-[(2S)-2-(methylamino)propanamido]butanoyl]-N-[(1R)-5-[[(5R)-5-[(2S)-1-[(2S)-3-methyl-2-[(2S)-2-(methylamino)propanamido]butanoyl]pyrrolidine-2-amido]-5,6,7,8-tetrahydronaphthalen-1-yl]carbamoyl]-1,2,3,4-tetrahydronaphthalen-1-yl]pyrrolidine-2-carboxamide], the pIC50 is 8.00 to 9.00 in assay [1], 7.00 to 8.00 in assay [2] and 8.00 to 9.00 in assay [3].
For `CN[C@@H](C)C(=O)N[C@H](C(=O)N1CCC[C@H]1C(=O)N[C@@H]1CCCc2ccc(N3CCN(c4ccc5c(c4)[C@H](NC(=O)[C@@H]4CCCN4C(=O)[C@@H](NC(=O)[C@H](C)NC)C4CCCCC4)CCC5)CC3)cc21)C1CCCCC1` [VIII-A, (2S)-1-[(2S)-2-cyclohexyl-2-[(2S)-2-(methylamino)propanamido]acetyl]-N-[(1R)-7-[4-[(8R)-8-[(2S)-1-[(2S)-2-cyclohexyl-2-[(2S)-2-(methylamino)propanamido]acetyl]pyrrolidine-2-amido]-5,6,7,8-tetrahydronaphthalen-2-yl]piperazin-1-yl]-1,2,3,4-tetrahydronaphthalen-1-yl]pyrrolidine-2-carboxamide], the figures for the pIC50 in assay [1], in assay [2] and in assay [3] were 6.00 to 7.00, < 6.00 and 7.00 to 8.00, respectively.
The matching figures for `CN[C@@H](C)C(=O)NC(C(=O)N1CCC[C@H]1C(=O)N[C@@H]1CCCc2cc(N3CCN(c4ccc5c(c4)CCC[C@H]5NC(=O)[C@@H]4CCCN4C(=O)[C@@H](NC(=O)[C@H](C)NC)C4CCCCC4)CC3)ccc21)C1CCCCC1` (stereo partly drawn) [VIII-B, (2S)-1-[(2S)-2-cyclohexyl-2-[(2S)-2-(methylamino)propanamido]acetyl]-N-[1(1R)-6-[4-[(5R)-5-[(2S)-1-[(2S)-2-cyclohexyl-2-[(2S)-2-(methylamino)propanamido]acetyl]pyrrolidine-2-amido]-5,6,7,8-tetrahydronaphthalen-2-yl]piperazin-1-yl]-1,2,3,4-tetrahydronaphthalen-1-yl]pyrrolidine-2-carboxamide]: 6.00 to 7.00, < 6.00 and 7.00 to 8.00.
The matching figures for “(2S,4S)-1-((S)-2-cyclohexyl-2-((S)-2-(methylamino)propanamido)acetyl)-N—((R)-5-(2-(2-(((R)-5-((2S,4S)-1-((S)-2-cyclohexyl-2-((S)-2-(methylamino)propanamido)acetyl)-4-hydroxypyrrolidine-2-carboxamido)-5,6,7,8-tetrahydronaphthalen-1-yl)oxy)ethoxy) ethoxy)-1,2,3,4-tetrahydmnaphthalen-1-yl)-4-hydroxypyrrolidine-2-carboxamide Formic Acid [Compound II-C]”: 7.00 to 8.00, 7.00 to 8.00 and 8.00 to 9.00.
